From patent US11930812B2, “Coating materials for seeds and for particulate materials, including fertilizers” (ADVANCED BIOLOGICAL MARKETING, INC., priority 2017, dated 2024)

How the values were obtained:
corn [1] = test: Corn root development in PVC tubes in natural field soil after seed treatment; type: in vivo; details: seed treated with 0.7 μl; corn maturity, 3 months after application; PVC tubes about 4 M long; FIG. 1A
Method: In the roots produced in field soil in PVC pipes, adequate water was applied throughout the growing season. Conversely, in the field trial shown in FIG. 1, the plants were subject to severe drought, according to official weather service notices. In both cases, the growth of roots was much greater when produced from seeds treated with the chemical. […] Turning to FIG. 1 in detail, pictured are the development of corn roots from seeds not treated (left) or treated with 0.7 μl of 1-octen-3-ol (right) at the time of corn maturity (that is, 3 months after application of octenol). In FIG. 1A, plants were grown in PVC tubes about 4 M long in natural field soil, and the treated seeds produced roots that exceeded the control by about 50%. Length of roots are indicated in meters (M) by the scale at right.

corn [2] = test: Corn root length in field grown plants (back hoe trench) after seed treatment; type: in vivo; details: seed treatment 0.7 μl, severe drought, control root 30 cm, FIG. 1B
Excerpt: In the roots produced in field soil in PVC pipes, adequate water was applied throughout the growing season. Conversely, in the field trial shown in FIG. 1, the plants were subject to severe drought, according to official weather service notices. In both cases, the growth of roots was much greater when produced from seeds treated with the chemical. […] When grown in the field, that is, in a setting where maximum root length was not impeded by the experiment itself, a similar or better result obtained. In FIG. 1B, roots were exposed in field grown plants with a back hoe trench and photographed. The images were adjusted so that the root volume in each is proportionally sized. In the control shown the root was 30 cm long, and with the treatment the root was 78 cm long to deepest part of the root visible.

corn [3] = test: Corn field trials 2015, yields after seed treatment; type: in vivo; details: seed treatment about 0.7 μl, 2-3 months post-planting
Method: Turning to FIG. 2 in detail, pictured are long-term effects of 1-octen-3-ol (represented as the designation “Omega” on the chart) on yields of corn, yield increases in squash and control of powdery mildew on squash. Treatments in every case were seed treatments with about 0.7 μl of 1-octen-3-ol. […] FIGS. 2A and 2B show yields of corn in field trials, 2015.

squash = test: Field-grown squash yield after seed treatment; type: in vivo; details: seed treatment about 0.7 μl; differences significant at P=0.01; FIG. 2C
Method: (§1) Turning to FIG. 2 in detail, pictured are long-term effects of 1-octen-3-ol (represented as the designation “Omega” on the chart) on yields of corn, yield increases in squash and control of powdery mildew on squash. Treatments in every case were seed treatments with about 0.7 μl of 1-octen-3-ol. […] FIGS. 2C and 2D show yield differences and disease resistance, as indicated by occurrence of powdery mildew from natural infection in field-grown squash following the same seed treatment protocol as above. The differences shown are significant at P=0.01. The yields are weights of fruit/ac. The powdery mildew disease rating is 0=no disease, 1=1 lesion/leaf, 2=2 lesions/leaf and 3=3 lesions per leaf.

powdery mildew = test: Powdery mildew from natural infection in field-grown squash after seed treatment; type: in vivo; details: seed treatment about 0.7 μl, differences significant at P=0.01, FIG. 2D
Method: as §1

corn [4] = test: Field trials of seed treatment, early-season flooding stress; type: in vivo; details: seed treatment 0.7 μl/seed
[5] = moderate toxicity; cited from earlier work
corn [6] = test: Corn seedling size after seed or urea fertilizer treatment with cyclodextrin/6PP; type: in vivo; details: cyclodextrin formulation; 0.2, 2 and 20 μl/seed or μl/g of urea fertilizer; plants about 15 days old; FIG. 4
Method: FIG. 4 illustrates corn seedling size following seed treatments at 0 (CO), 0.2, 2 and 20 μl/seed or of fertilizer with cyclodextrin/6PP at 0 (CO), 0.2, 2 and 20 μl/g of urea fertilizer. Plants were about 15 days old and bars with dissimilar letters denote statistical differences at P=0.01. The formulation systems designated here can be used with many other triggering compounds, signal molecules, or substances. In FIG. 4 is shown data on 6-pentyl pyrone (6PP) used with the same cyclodextrin formulation described above for use with 1-octen-3-ol. 6PP is effective in this use.

SMILES	roots exceeding the control (corn [1])	root length to deepest part of the root visible (corn [2]) [cm]	biomass yield of corn versus untreated (corn [3]; FIG. 2A)	grain yield of corn versus untreated (corn [3]; FIG. 2B)	squash yield (weights of fruit/ac) (squash)	disease resistance (powdery mildew disease rating) (powdery mildew)	resistance to flooding stress (corn [4])	LD 50 [5] [mg/kg]	corn seedling size (corn [6])
C=CC(O)CCCCC (stereo not drawn) [1-octen-3-ol]	about 50%	78	significantly higher yields	significantly higher yields	systemically enhanced	systemically enhanced	resistance to early-season flooding stress	340	–
CCCCCc1cccc(=O)o1 [6PP, 6-pentyl pyrone]	–	–	–	–	–	–	–	–	effective
